# Data taken from article PMC8197120, “Synthesis and Characterization of Some New Quinoxalin-2(1H)one and 2-Methyl-3H-quinazolin-4-one Derivatives Targeting the Onset and Progression of CRC with SAR, Molecular Docking, and ADMET Analyses” (Molecules, 2021).
# Read-outs that look alike come from different tables or passages of the source.
# Tests used:
# LoVo cells = assay: In vitro cytotoxicity assay (LDH release); assay type: cell-based, human
# Description: (§1) The best-in-class compounds, including (4c), (4d), (6a), (6b), (6d), (6e), and (6g), which were recognized as antimicrobial and enzymatic inhibitors, were further examined for their cytotoxic effects on LoVo and HCT-116 cells of human colon cancer. This was carried out by determining the residual percentages of viable cells after being treated with the compounds at different concentrations (50, 100, 200, and 400 µg/mL), using triton X-100 (at concentration of 0.1%) in the assay medium and the assay as the positive and negative controls, respectively.
# (§2) Samples were diluted in Dulbecco’s modified Eagles medium, consisting of 10% fetal bovine serum, added to cells grown and cultured for 24 h in a 5% CO2-humidified incubator at 37 °C. Then, the activity of lactate dehydrogenase released from damaged cells was determined in the collected supernatant aliquots using an ELISA end-point assay (Benchmark Plus, Bio-Rad, CA, USA). The 0.1% Triton X-100 in the assay medium and the assay medium only were used as positive and negative controls, respectively. Cell viability, expressed as a relative percentage of the OD values (at 550 nm) for compound-treated cells (final concentration of 200 µg) and the control, is shown as mean ± SD (n = 2).
# HCT-116 cells = assay: In vitro cytotoxicity assay (LDH release); assay type: cell-based, human
# Description: as §1, §2
# [1] = test system: Bacteroides fragilis (ATCC 25285); assay: Antibacterial activity, CFU viability; assay type: cell-based; settings: ATCC25285, mean of two determinations, read-out: Mean IC50 ± SD
# Description: (§3) Pure standard microbial isolates collected from King Khaled University Hospital were tested in this study, including Enterococcus faecalis (ATCC 29122) as Gram positive bacteria and Escherichia coli (ATCC 25922) and Bacteroides fragilis (ATCC 25285) as Gram negative bacteria. Fresh cultures of each microorganism were grown on nutrient agar plates (Oxoid, UK), of which small inoculums were suspended in 5 mL nutrient broth for bacterial suspension preparation of 0.5MacFarland. Bacterial viability was investigated by estimating the colony-forming unit (CFU) ability of the bacteria incubated at different time intervals without or with appropriate amounts of the compound that were mixed with 2 × 10^7 CFU/mL in sterile BHI broths and were incubated under shaking for 60 min at 37 °C. Samples were serially diluted into sterile BHI broths, streaked onto media agar plates, and incubated for 24 h at 37 °C. The antibacterial potency of tested compounds was expressed as the residual number of CFU with reference to the initial inoculums. […] Ampicillin (1 mg/mL) was used as a positive standard reference.
# [2] = test system: Enterococcus faecalis (ATCC 29122); assay: Antibacterial activity, CFU viability; assay type: cell-based; settings: ATCC29122, mean of two determinations, read-out: Mean IC50 ± SD
# Description: as §3
# [3] = test system: Escherichia coli (ATCC 25922); assay: Antibacterial activity, CFU viability; assay type: cell-based; settings: ATCC25922, mean of two determinations, read-out: Mean IC50 ± SD
# Description: as §3
# [4] = molecular target: purified recombinant human LDHA protein (Homo sapiens, UniProt P00338); assay: Lactate dehydrogenase-A (LDHA) inhibition assay, NADH consumption; assay type: biochemical; settings: LDHA; for inhibition at 100 µg/mL: read-out: Mean Inhibition % at 100 µg/ml ± SD; for inhibition at 200 µg/mL: read-out: Mean Inhibition % at 200 µg/ml ± SD
# Description: LDHA inhibition activity was investigated by measuring the amounts of consumed NADH as described by Kim and his group. Briefly, different concentrations of each compound (50, 100, 200, and 300 µg) were incubated in buffer containing 20 mM of HEPES-K+ (pH 7.2), 20 μM of NADH, 2 mM of pyruvate, and 10 ng of purified recombinant human LDHA protein for 10 min. The fluorescence of NADH, which has an excitation wavelength of 340 nm and emission wavelength of 460 nm, was detected using a Spectrofluorometer.
# COX-2 = molecular target: T1, COX-2 (Homo sapiens, UniProt P35354); assay: Cyclooxygenase (COX-2) inhibition assay (Cayman kit 701080); assay type: biochemical; settings: for inhibition at 100 µg/mL: read-out: Mean Inhibition % at 100 µg/ml ± SD; for inhibition at 200 µg/mL: read-out: Mean Inhibition % at 200 µg/ml ± SD
# T1 construct: purchased Cayman Chemical Company 701080
# T1 sequence (P35354 18-604): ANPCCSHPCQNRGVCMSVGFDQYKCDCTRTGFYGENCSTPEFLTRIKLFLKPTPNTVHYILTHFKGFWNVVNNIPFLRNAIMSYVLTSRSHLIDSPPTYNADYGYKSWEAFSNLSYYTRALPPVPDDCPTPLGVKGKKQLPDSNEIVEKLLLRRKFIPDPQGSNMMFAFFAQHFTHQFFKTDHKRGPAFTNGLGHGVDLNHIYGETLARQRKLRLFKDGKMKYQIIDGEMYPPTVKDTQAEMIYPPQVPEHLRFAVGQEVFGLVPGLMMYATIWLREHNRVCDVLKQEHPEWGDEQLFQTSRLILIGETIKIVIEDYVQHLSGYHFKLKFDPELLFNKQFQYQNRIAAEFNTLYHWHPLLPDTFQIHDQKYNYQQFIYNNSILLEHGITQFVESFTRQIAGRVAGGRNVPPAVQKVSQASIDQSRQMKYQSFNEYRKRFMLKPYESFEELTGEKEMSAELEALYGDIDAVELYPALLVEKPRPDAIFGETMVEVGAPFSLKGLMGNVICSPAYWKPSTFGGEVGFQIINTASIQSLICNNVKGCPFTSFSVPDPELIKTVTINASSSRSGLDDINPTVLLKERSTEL
# Description: The compounds were resuspended in 100% DMSO at a final concentration of 10 mg/mL. […] The inhibitory activity was expressed as the inhibition percentage, which was determined by comparison with a control experiment. IC50 values were deduced from the curves.
# [5] = In vitro cytotoxicity assay (LDH release); assay type: cell-based, human; settings: human, 200 µg/ml, 24 h
# Description: as §1, §2
# [6] = HCT-116 colon cancer cells, read-out: Mean % Cell Viability ± SD CRC-HCT-116 cells
# [7] = LoVo colon cancer cells, read-out: Mean % Cell Viability ± SD CRC-LoVo cells
Compound,"Mean % Cell Viability, positive control (LoVo cells) [%]","Mean % Cell Viability, positive control (HCT-116 cells) [%]",IC50 [1] [µg/mL],IC50 [2] [µg/mL],IC50 [3] [µg/mL],inhibition at 100 µg/mL [4] [%],inhibition at 200 µg/mL [4] [%],inhibition at 100 µg/mL (COX-2) [%],inhibition at 200 µg/mL (COX-2) [%],"viability at 24 h, 200 µg/mL [5, 6] [%]","viability at 24 h, 200 µg/mL [5, 7] [%]",IC50 (COX-2) [µM]
Triton X-100 [reference compound],0.00,0.00,–,–,–,–,–,–,–,–,–,–
"COc1cc2nc(C)n(N=Cc3ccc(C(=O)O)cc3)c(=O)c2cc1OC [Compound 6b, 4-[(6,7-Dimethoxy-2-methyl-4-oxo-4H-quinazolin-3-ylimino)-methyl]-benzoic acid]",–,–,10.3 ± 1.2,12.7,18.2 ± 0.99,32 ± 2.55,49.2,37.1 ± 2.69,69 ± 2.76,47 ± 2.83,54.2 ± 2.47,–
"COc1cc(C=Nn2c(C)nc3ccc(Cl)cc3c2=O)ccc1OCc1ccccc1 [Compound 6e, 3-[(4-Benzyloxy-3-methoxy-benzylidene)-amino]-6-chloro-2-methyl-3H-quinazolin-4-one]",–,–,12.8 ± 0.919,12.4,15.7 ± 0.919,44.8 ± 2.9,76.8,57.9,100,89 ± 2.83,93.4 ± 4.81,222
